# “And” between values parts separate entries of the source, which are not always exact repeats. Equal values may be shown once.
# Key:
# [1] = In vitro BBB permeability, BBB Kit; format: in vitro ADME; settings: Wistar, rat
# [2] = PK study after intranasal administration; format: in vivo, mice; settings: for concentration at 5 min / concentration at 15 min / concentration at 30 min / concentration at 45 min: other: intranasal, drug concentration in plasma; for Tmax at 7 days / Cmax at 7 days: 32.4 ug; for AUC(0-t): AUC0–t; for half-life: T1/2, plasma
# [3] = PK study after oral administration; format: in vivo, mice
# [4] = pH 6.8; cited from earlier work
# [5] = Solubility studies of K-604 in different vehicles; format: physicochemical
# [6] = 0.01 N HCl solution, 32.4 μg/mouse intranasal vs oral 166 μg/mouse, cerebrum
# [7] = CA solution, 108 μg/mouse intranasal vs oral 166 μg/mouse, cerebrum
# [8] = GA solution, 108 μg/mouse intranasal vs oral 166 μg/mouse, cerebrum
# [9] = HA solution, 108 μg/mouse intranasal vs oral 166 μg/mouse, cerebrum
# [10] = female, Crl:CDI (ICR), mouse, plasma, 32.4 μg, repeated intranasal, 0.01 N HCl solution, 10 μL, mice
# [11] = female, Crl:CDI (ICR), mouse, plasma, 162 μg, repeated (7 days) intranasal, 0.01 N HCl solution, 50 μL, mice
# [12] = female, ICR, mouse, plasma, inhaled or intranasal, 108 ug, single intranasal, CA solution, 108 μg/10 μL, mice
# [13] = female, ICR, mouse, plasma, inhaled or intranasal, 108 ug, single intranasal, GA solution, 108 μg/10 μL, mice
# [14] = female, ICR, mouse, plasma, inhaled or intranasal, 108 ug, single intranasal, HA solution, 108 μg/10 μL, mice
# [15] = repeated (7 days) intranasal, 0.01 N HCl solution, 32.4 μg/10 μL, mice
# [16] = single intranasal, CA solution, 108 μg/10 μL, mice
# [17] = single intranasal, GA solution, 108 μg/10 μL, mice
# [18] = single intranasal, HA solution, 108 μg/10 μL, mice
# [19] = female, ICR, mouse, cerebellum, po, 6 mg/kg
# [20] = female, ICR, mouse, cerebrum, po, 6 mg/kg
# [21] = female, ICR, mouse, plasma, po, 6 mg/kg
# [22] = single oral 6 mg/kg (166 μg/mouse), 0.01 N HCl solution, mice
structure (smiles),measurement,setting,value
"NC(=O)N1c2ccccc2C=Cc2ccccc21 [carbamazepine, 5H-dibenzo[b,f]azepine-5-carboxamide, reference compound]","Papp at 30 min, 1 μM",[1],47.8 ×10⁻⁶ cm/s
"CSc1cc(C)nc(SC)c1NC(=O)CN1CCN(CCSc2nc3ccccc3[nH]2)CC1.Cl [K-604, 2-(4-(2-((1H-Benzo[d]imidazol-2-yl)thio)ethyl)piperazin-1-yl)-N-(6-methyl-2,4-bis(methylthio)pyridin-3-yl)acetamide hydrochloride]",intranasal AUC BTE index,[2]; [6],211
same,intranasal Cmax BTE index,[2]; [6],134
same,"drug concentration in plasma relative to cerebral tissue, fold higher","[2]; 5 to 45 min, repeated intranasal, 0.01 N HCl solution, 50 μL, mice",6- to 10 fold
same,intranasal AUC BTE index,[2]; [7],133
same,intranasal Cmax BTE index,[2]; [7],90
same,intranasal AUC BTE index,[2]; [8],100
same,intranasal Cmax BTE index,[2]; [8],61
same,intranasal AUC BTE index,[2]; [9],137
same,intranasal Cmax BTE index,[2]; [9],75
same,Tmax,"[2]; female, Crl:CD1 (ICR), mouse, cerebrum, inhaled or intranasal, 108 ug",15 min
same,Tmax,"[2]; female, Crl:CD1 (ICR), mouse, olfactory bulb, inhaled or intranasal, 108 ug",15 min
same,Tmax,"[2]; female, Crl:CD1 (ICR), mouse, plasma, inhaled or intranasal, 108 ug",5 min
same,Cmax,"[2]; female, Crl:CDI (ICR), mouse, cerebrum, inhaled or intranasal, 162 ug, cerebrum, repeated (7 days) intranasal, 0.01 N HCl solution, 162 μg/50 μL, mice",83 ng/g
same,Cmax,"[2]; female, Crl:CDI (ICR), mouse, cerebrum, inhaled or intranasal, 162 ug, cerebrum, single intranasal, 0.01 N HCl solution, 162 μg/50 μL, mice",66 ng/g
same,Cmax,"[2]; female, Crl:CDI (ICR), mouse, olfactory bulb, inhaled or intranasal, 162 ug, olfactory bulb, repeated (7 days) intranasal, 0.01 N HCl solution, 162 μg/50 μL, mice",285 ng/g
same,Cmax,"[2]; female, Crl:CDI (ICR), mouse, olfactory bulb, inhaled or intranasal, 162 ug, olfactory bulb, single intranasal, 0.01 N HCl solution, 162 μg/50 μL, mice",406 ng/g
same,AUC,"[2]; female, Crl:CDI (ICR), mouse, plasma, inhaled or intranasal, 162 ug",345 ng·h/mL
same,Cmax,"[2]; female, Crl:CDI (ICR), mouse, plasma, inhaled or intranasal, 162 ug, plasma, repeated (7 days) intranasal, 0.01 N HCl solution, 162 μg/50 μL, mice",870 ng/mL
same,Cmax,"[2]; female, Crl:CDI (ICR), mouse, plasma, inhaled or intranasal, 162 ug, plasma, single intranasal, 0.01 N HCl solution, 162 μg/50 μL, mice",574 ng/mL
same,concentration at 5 min,[2]; [10],142 ng/mL
same,concentration at 15 min,[2]; [10],90 ng/mL
same,concentration at 30 min,[2]; [10],33 ng/mL
same,concentration at 45 min,[2]; [10],10 ng/mL
same,concentration at 5 min,[2]; [11],870 ng/mL
same,concentration at 15 min,[2]; [11],449 ng/mL
same,concentration at 30 min,[2]; [11],250 ng/mL
same,concentration at 45 min,[2]; [11],77 ng/mL
same,Tmax at 7 days,"[2]; female, ICR, mouse, cerebrum, inhaled or intranasal",5 min
same,Cmax at 7 days,"[2]; female, ICR, mouse, cerebrum, inhaled or intranasal, repeated (7 days) intranasal, 0.01 N HCl solution, 32.4 μg/10 μL, mice",21 ± 10 ng/g
same,Tmax,"[2]; female, ICR, mouse, cerebrum, inhaled or intranasal, 108 ug",5 min
same,Cmax,"[2]; female, ICR, mouse, cerebrum, inhaled or intranasal, 108 ug, single intranasal, CA solution, 108 μg/10 μL, mice",47 ± 29 ng/g
same,Cmax,"[2]; female, ICR, mouse, cerebrum, inhaled or intranasal, 108 ug, single intranasal, GA solution, 108 μg/10 μL, mice",32 ± 7 ng/g
same,Cmax,"[2]; female, ICR, mouse, cerebrum, inhaled or intranasal, 108 ug, single intranasal, HA solution, 108 μg/10 μL, mice",39 ± 11 ng/g
same,Tmax at 7 days,"[2]; female, ICR, mouse, olfactory bulb, inhaled or intranasal",5 min
same,Cmax at 7 days,"[2]; female, ICR, mouse, olfactory bulb, inhaled or intranasal, repeated (7 days) intranasal, 0.01 N HCl solution, 32.4 μg/10 μL, mice",156 ± 131 ng/g
same,Tmax,"[2]; female, ICR, mouse, olfactory bulb, inhaled or intranasal, 108 ug",5 min
same,Cmax,"[2]; female, ICR, mouse, olfactory bulb, inhaled or intranasal, 108 ug, single intranasal, CA solution, 108 μg/10 μL, mice",351 ± 112 ng/g
same,Cmax,"[2]; female, ICR, mouse, olfactory bulb, inhaled or intranasal, 108 ug, single intranasal, GA solution, 108 μg/10 μL, mice",160 ± 24 ng/g
same,Cmax,"[2]; female, ICR, mouse, olfactory bulb, inhaled or intranasal, 108 ug, single intranasal, HA solution, 108 μg/10 μL, mice",274 ± 100 ng/g
same,Tmax at 7 days,"[2]; female, ICR, mouse, plasma, inhaled or intranasal",5 min
same,Cmax at 7 days,"[2]; female, ICR, mouse, plasma, inhaled or intranasal, repeated (7 days) intranasal, 0.01 N HCl solution, 32.4 μg/10 μL, mice",146 ± 20 ng/mL
same,Tmax,"[2]; female, ICR, mouse, plasma, inhaled or intranasal, 108 ug",5 min
same,AUC(0-t),[2]; [12],165 ng·h/mL
same,AUC(0-t),[2]; [13],121 ng·h/mL
same,AUC(0-t),[2]; [14],170 ng·h/mL
same,Cmax,[2]; [12],283 ± 121 ng/mL
same,Cmax,[2]; [13],217 ± 51 ng/mL
same,Cmax,[2]; [14],274 ± 30 ng/mL
same,half-life,[2]; [12],13.4 ± 1.7 min
same,half-life,[2]; [13],16.6 ± 2.9 min
same,half-life,[2]; [14],17.4 ± 2.1 min
same,"AUC0–t, cerebrum",[2]; [15],367 ng·min/g and 367 ± 121 ng·min/g
same,"AUC0–t, olfactory bulb",[2]; [15],2113 ± 1380 ng·min/g
same,"AUC0–t, cerebrum",[2]; [16],772 ng·min/g and 772 ± 223 ng·min/g
same,"AUC0–t, olfactory bulb",[2]; [16],3976 ± 642 ng·min/g
same,"Tmax, plasma",[2]; [16],5 min
same,"AUC0–t, cerebrum",[2]; [17],579 ng·min/g and 579 ± 137 ng·min/g
same,"AUC0–t, olfactory bulb",[2]; [17],3406 ± 2127 ng·min/g
same,"AUC0–t, cerebrum",[2]; [18],791 ng·min/g and 791 ± 160 ng·min/g
same,"AUC0–t, olfactory bulb",[2]; [18],5200 ± 1036 ng·min/g
same,Cmax,[3]; [19],0.7 ± 0.3 ng/g
same,Tmax,[3]; [19],15 min
same,Cmax,[3]; [20],0.8 ± 0.4 ng/g
same,Tmax,[3]; [20],15 min
same,AUC(0-t),[3]; [21],3.29 ng·h/mL
same,Cmax,[3]; [21],6.2 ± 3.1 ng/mL
same,Tmax,[3]; [21],15 min
same,"AUC0–t, cerebellum",[3]; [22],5.4 ± 4.9 ng·min/g
same,"AUC0–t, olfactory bulb",[3]; [22],0 ± 0 ng·min/g
same,"AUC0–t, cerebrum","[3]; single oral 6 mg/kg (166 μg/mouse), 0.01 N HCl solution, mice, 6 mg/kg",8.9 ng·min/g and 9 ng·min/g and 8.9 ± 7.4 ng·min/g
same,drug concentrations in cerebrum and cerebellum tissue at 60 min,"[3]; single oral 6 mg/kg, mice, LLOQ 0.5 ng/g",less than the lower limit of quantification (LLOQ)
same,"drug concentrations in the olfactory bulb tissue, all time points","[3]; single oral 6 mg/kg, mice, LLOQ 1 ng/g",less than the LLOQ
same,"Papp at 30 min, 1 μM",[1],21.9 ×10⁻⁶ cm/s
same,Aqueous solubility,[4],0.05 mg/mL
same,solubility at 24 h,"[5]; CA aqueous solution (additive 7.7 mg, 0.04 M), pH 3, thermodynamic from solid",10.8 mg/mL
same,solubility at 24 h,"[5]; GA aqueous solution (additive 4 mg, 0.04 M), pH 3.6, thermodynamic from solid",10.8 mg/mL
same,solubility at 24 h,"[5]; HA aqueous solution (additive 5 mg), pH 3.8, thermodynamic from solid",10.8 mg/mL
same,solubility,"[5]; water, pH 6.8, water",0.05 mg/mL

# From publication PMC6796924 (ACS Omega, 2019)
